Results on three compounds are retold here after EP0334956A1, “HEMOLYSIS INHIBITOR AND MEDICAL RESIN COMPOSITION, MEDICAL IMPLEMENT, AND BLOOD-PRESERVING FLUID CONTAINING THE SAME” (KAO CORPORATION, priority 1986, dated 1988).

Each structure is given as a SMILES string. Where two headings read alike, the source gives them in different places.

The test system of series [1] is human platelet rich plasma. It counts as cell-based. How it is done:
To determine the effects brought about on platelets by the compounds used in Examples 16 through 18, the test for recovery of function of platelets was carried out by the following procedure.
First, a solution of 20,000 ppm of isopropyl decyl maleate in methanol (Example 19), a solution of 20,000 ppm of isopropyl tetradecyl maleate in methanol (Example 20), a solution of 20,000 ppm of isopropyl decyl itaconate in methanol (Example 21), a solution of 20,000 ppm of di-2-ethylhexyl maleate in methanol (Control 24), a solution of 20,000 ppm of di-2-ethylhexyl phthalate in methanol (Control 25), a solution of 20,000 ppm of dinormal decyl phthalate in methanol (Control 26), and methanol containing no added compound (blank) were prepared. These solutions were severally added to human […] in a fixed amount of 1/100. […]
To determine the effects exerted on platelets by 2-ethylhexyl isostearate used in Example 24 and 2-ethylhexyl 2-ethylhexanoate used in Example 25, a test for the recovery of function of platelets was carried out by following the procedure of Examples 19 through 21. […] The procedure of Examples 19 through 21 was repeated on these solutions to determined maximum capacity for aggregation with respect to 50µM ADP and 10µg/ml collagen in the presence of 0.2 mg of fibrinogen per ml.

A further series concerns platelets. The conditions noted are these: Jouranl of Japan blood Transfusion Society, 28(3) 282 (1981); cited from earlier work.
The next series has as its system erythrocytes. The conditions noted are these: dissolving from flexible vinyl chloride resin container into preserved blood; Blood (1984); cited from earlier work.
In series [2] the test system is human platelet rich plasma. Kind of series: Platelet aggregation in platelet rich plasma (Aggrecoder). In kind it is cell-based. The note with it: for activity at 400 µM: Homo sapiens, Platelet, 2 h, 40 mM methanol solution added in 1/100, room temperature 2 hours, relative to blank. How it is done: A 40 mM methanol solution of isopropyl isotridecyl maleate (Example 13), a 40 mM methanol solution of glycerine-l-butyl-3-isostearyl ether (Example 14), a 40 mM methanol solution of isopropyl isolaurate (Example 15), a 40 mM methanol solution of di-2-ethylhexyl phthalate (Control 19) and methanol containing no added compound (Control 20) were severally added to a human platelet rich plasma (count of platelets about 300,000/mm ) in a fixed amount of 1/100, left standing at room temperature for 2 hours, and tested for platelet aggregation by the use of an instrument (product of Kyoto Daiichikagaku K.K. marketed under "Aggrecoder").
The percentage of transmittance of light through the solution of platelet rich plasma containing a given sample to the maximum transmittance of light through the same solution of platelet rich plasma not containing the sample (blank) was reported as the ratio of aggregation of the sample. As aggregation inducers, 5 µM ADP (adenosine diphosphoric acid) and 5 ug/ml collagen were used.

For series [3], the system named is human concentrated red cells. Kind of series: Hemolysis of stored CRC, reagent added as Tween 80/physiological saline emulsion; plasma hemoglobin by TMB method. It counts as cell-based. The conditions noted are these: final concentration 0.5 mM, emulsion, 4°C, 4 weeks. How it is done:
Isopropyl isotridecyl maleate was added to a 2000ug/ml polyoxyethylene monooleate (reagent-grade product of Wako Junyaku K.K. marketed under trademark designation of "Tween 80")/physiological saline mixed solution in such an amount to be contained therein in a final concentration of 4mM. A 0.2ml aliquot of the resultant emulsion was added to a human concentrated red cells (hereinafter referred to as "CRC") adjusted in advance to a hematocrit value of about 70% so as to be contained therein in a final concentration indicated in Table 1. The resulting liquid was placed in a stoppered polypropylene tube and left standing at rest at 4°C for 4 weeks. At the end of this standing, it was tested for plasma hemoglobin concentration by the TMB method (Clin. Chem., 23, 749-(1977)).
An emulsion was prepared by following the procedure of Example 1, except that isopropyl decyl maleate was used in place of isopropyl-isotridecyl maleate. A CRC sample incorporating the emulsion was left standing and thereafter tested for plasma hemoglobin concentration.
Emulsions were prepared by following the procedure of Excample 1, except that di-2-ethylhexyl phthalate (Control 1) and diisopropyl maleate, a carboxylic ester compound deviating from the scope of the present invention (Control 2) were respectively used in place of isopropyl isotridecyl maleate. CRC samples severally incorporating the emulsions were left standing and, thereafter, tested for plasma hemoglobin concentration.
Glycerine-l-butyl-3-isostearyl ether was added to a 2000 ug/ml polyoxyethylene monooleate (regent-grade product of Wako Junyaku K.K. marketed under trademark designation of "Tween 80")/ physiological saline mixed solution so as to be contained therein in a final concentration of 4 mM. A 0.2ml aliquot of the resultant emulsion was added to CRC adjusted in advance to a hematocrit value of about 70% so as to be contained therein in a final concentration indicated in Table 3. The resultant liquid was placed in a stoppered polypropylene tube and left standing at 4°C for 4 weeks. Thereafter, it was tested for plasma hemoglobin concentration by following the procedure of Example 1.
An emulsion was prepared by following the procedure of Example 5, except that glycerine-1,3-dioctyl ether was used in place of glycerine- l-butyl-3-isostearyl ether. A CRC sample incorporating the resultant emulsion was left standing and, thereafter, tested for plasma hemoglobin concentration. Controls 7 and 8
Emulsions were prepared by following the procedure of Example 5, except that di-2-ethylhexyl phthalate (Control 7) and glycerine monooctyl ether, an ether compound deviating from the scope of the present invention, (Control 8) were respectively used in place of glycerine-l-butyl-3-isostearyl ether. CRC samples incorporating the emulsions were left standing and, thereafter, tested for plasma hemoglobin concentration.
Isopropyl isolaurate was dispersed in a 2000 ug/ml poloxyethylene monooleate (reagent-grade product of Wako Junyaku K.K. marketed under trademark designation of "Tween 80")/physiological saline mixed solution so as to be contained therein in a concentration of 4 mM. A 0.2-ml aliquot of the resultant emulsion was added to CRC adjusted in advance to a hematocrit value of about 70% so as to be contained therein in a final concentration indicated in Table 5. The resultant liquid was placed in a stoppered polypropylene tube and left standing at 4°C for 4 weeks. Thereafter, it was tested for plasma hemoglobin concentration by following the procedure of Example 1.
An emulsion was prepared by following the procedure of Example 9, except that 2-ethylhexyl isostearate was used in place of isopropyl isolaurate. A CRC sample incorporating the resultant emulsion was left standing and, thereafter, tested for plasma hemoglobin concentration.

Consider `CCCCC(CC)COC(=O)C(CC)CCCC` (stereo not shown) [2-ethylhexyl 2-ethylhexanoate], for which the “action on recovery of ability of platelet aggregation (in words)” value in series [1] was “produced no discernible action to curb recovery of the ability of platelet aggregation”.

Consider `CCCCC(CC)COC(=O)CCCCCCCCCCCCCCC(C)C` (stereo not shown) [2-ethylhexyl isostearate], for which, in series [1], the “action on recovery of ability of platelet aggregation (in words)” value is “produced no discernible action to curb recovery of the ability of platelet aggregation”.

In the case of `CCCCC(CC)COC(=O)c1ccccc1C(=O)OCC(CC)CCCC` (stereo not shown) [Di-2-ethylhexyl phthalate, reference compound], the entries for the “effect on aggregating ability of platelets (in words)” value (in the series on platelets; in series [2] (summary of Table 7)) were “hinders the aggregating ability of platelets” and “produced a discernible effect of curbing the recovery of the aggregating ability of platelets”, respectively. For the same compound, the “effect on hemolysis of erythrocytes (in words)” value with erythrocytes is recorded as “serves to hinder the hemolysis of erythrocytes”. Further, the activity at 400 µM in series [2] (read-out: Ratio of platelet aggregation, aggregation inducer 5 µM ADP) amounted to 92.1%; in series [2] (read-out: Ratio of platelet aggregation, aggregation inducer 5 µg/ml collagen), 89.6%. The results for the “Hemoglobin concentration in plasma” value in series [3] (Table 1), in series [3] (Table 3) and in series [3] (Table 5) were 41 Mg/ml, 62 mg/mL and 35 mg/mL, respectively.
